Test: recombinant UMI read abundance after kanamycin selection (control-corrected) (log10(CPM+1)); higher = more efficient recombination; extreme values may be limits of the assay; sequences stand for … in AGTGCAGAGAAAATCGGCCAGTTTTCTCTGCCTGCAGTCCGCATGCCGTGGGACCCCTTGGGTTCTAACCTGTTGCCTAGATTTATGCAGCGGACTGCCTTTCTCCCAAAGTGATAAACCGG…AGGTTGGTTTCACT; site = the 11-nt donor
Procedure, shortened: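 Sequencing read counts were converted to CPM, averaged over two replicates and scaled by control-derived factors. Results are given as log10(CPM+1). The reads covered the donor–target junction of recombinant UMIs from a pooled Escherichia coli screen of donor and donor-binding-loop pairs for the IS621 bridge recombinase.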
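Also: IS621 bridge recombinase in Escherichia coli cells against a fixed T5 target plasmid.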

Point of comparison: “GGAAGCACATGGACCGGTTTTCCCGGTAATCCGTATTTGTG (site GGAAGCACTCA)”, “recombinant UMI read abundance (log10)” value 1.4. Against it:
- CTTCTCACATGGACCGGTTTTCCCGGTAATCCGTATTTGTA (site CTTCTCACTTA) — lower, 0.336
- GCTACTGCATGGACCGGTTTTCCCGGTAATCCGTATTTGCG (site GCTACTGCTAG) — lower, 0.345
- CGAACATCATGGACCGGTTTTCCCGGTAATCCGTATTTGCC (site CGATCATCTAG) — lower, 0
- GGCAATCCATGGACCGGTTTTCCCGGTAATCCGTATTTGAA (site GGCAATCCTTC) — lower, 0.00387
- CGGGAGGCATGGACCGGTTTTCCCGGTAATCCGTATTTGCC (site CGGGAGACTGG) — lower, 0
- GCAACGCCATGGACCGGTTTTCCCGGTAATCCGTATTTGTA (site GCCACGCCTTA) — lower, 0.026
- TCCACCGCATGGACCGGTTTTCCCGGTAATCCGTATTTGTG (site TCCACCGCTCG) — lower, 0.00762
- GAAAGTCCATGGACCGGTTTTCCCGGTAATCCGTATTTGGA (site GAAAGTCCTTC) — lower, 0.0128
- CTCGTAACATGGACCGGTTTTCCCGGTAATCCGTATTTGAT (site CTCGTAACTAT) — higher, 2.31
- CTACTCACATGGACCGGTTTTCCCGGTAATCCGTATTTGGA (site CTACTGACTTC) — lower, 0.0219
- CCAAAACCATGGACCGGTTTTCCCGGTAATCCGTATTTGTT (site CCAAAACCTAA) — lower, 0.00598
- CTACTAACATGGACCGGTTTTCCCGGTAATCCGTATTTGGA (site CTAGTAACTTC) — lower, 0.141
- GTTCTCACATGGACCGGTTTTCCCGGTAATCCGTATTTGGT (site GTTCTCACTAC) — lower, 0.234
- GGGCAGACATGGACCGGTTTTCCCGGTAATCCGTATTTGCA (site AGGAAGACTTG) — lower, 0.0416
- AGTGGAACATGGACCGGTTTTCCCGGTAATCCGTATTTGTC (site AGTGGAACTGA) — higher, 2.3
- CTACTAACATGGACCGGTTTTCCCGGTAATCCGTATTTGGA (site CTACTCACTTC) — lower, 0.0167
- ACACGAACATGGACCGGTTTTCCCGGTAATCCGTATTTGTC (site ACACGAACTCA) — lower, 0.338
- CGATCATCATGGACCGGTTTTCCCGGTAATCCGTATTTGAT (site CGATCATCTAT) — lower, 0.727
- AACTAGACATGGACCGGTTTTCCCGGTAATCCGTATTTGGT (site AACTAGACTAC) — lower, 0.776
- GACAAGACATGGACCGGTTTTCCCGGTAATCCGTATTTGTG (site GACAAGACTCA) — higher, 1.73
- TCCGCATCATGGACCGGTTTTCCCGGTAATCCGTATTTGGG (site TCCGCATCTCC) — lower, 0.00533
- CGATTCGCATGGACCGGTTTTCCCGGTAATCCGTATTTGCT (site CGATTCGCTAG) — higher, 2.12
- TAAAGTACATGGACCGGTTTTCCCGGTAATCCGTATTTGTA (site TAAAGTCCTTA) — lower, 0.00305
- CCCATATCATGGACCGGTTTTCCCGGTAATCCGTATTTGTC (site GCCATATCTGA) — lower, 0
- GCAGAGACATGGACCGGTTTTCCCGGTAATCCGTATTTGCG (site GCAGAGACTCG) — higher, 2.45
- GTGTATGCATGGACCGGTTTTCCCGGTAATCCGTATTTGGT (site GTGGATGCTAC) — lower, 0
- AATGTAACATGGACCGGTTTTCCCGGTAATCCGTATTTGCT (site AATGGAACTAG) — lower, 0
- CGATAGACATGGACCGGTTTTCCCGGTAATCCGTATTTGAG (site CGTTAGACTCT) — lower, 0.979
- TATTGACCATGGACCGGTTTTCCCGGTAATCCGTATTTGCG (site TATTGACCTCG) — lower, 0.00685
- GCGCCCACATGGACCGGTTTTCCCGGTAATCCGTATTTGTG (site GCGCCCACTCA) — lower, 0.0198
- TCTACCGCATGGACCGGTTTTCCCGGTAATCCGTATTTGCG (site TCAACCGCTCG) — lower, 0.00715
- TACTCGACATGGACCGGTTTTCCCGGTAATCCGTATTTGCT (site TACTTGACTAG) — lower, 1.01
- GTTCCAACATGGACCGGTTTTCCCGGTAATCCGTATTTGTA (site GTTCCAACTTA) — lower, 0.437
- ACAGTATCATGGACCGGTTTTCCCGGTAATCCGTATTTGCA (site ACAGTACCTTT) — lower, 0.00804
- CCCTAGACATGGACCGGTTTTCCCGGTAATCCGTATTTGGG (site CCCTAGACTCC) — lower, 0.546
- CGGACATCATGGACCGGTTTTCCCGGTAATCCGTATTTGTT (site CGGACATCTAC) — lower, 0.00517
- TGGCGAGCATGGACCGGTTTTCCCGGTAATCCGTATTTGTT (site TGGCGAGCTAA) — lower, 1.04
- AAAGGCACATGGACCGGTTTTCCCGGTAATCCGTATTTGAA (site AAAGGCACTTT) — lower, 0.56
- GAAGATTCATGGACCGGTTTTCCCGGTAATCCGTATTTGTT (site GATGATTCTAA) — lower, 0.296
- TTCATACCATGGACCGGTTTTCCCGGTAATCCGTATTTGCC (site TTCATACCTGG) — lower, 0
- GACCGTCCATGGACCGGTTTTCCCGGTAATCCGTATTTGAT (site TACCGTCCTAT) — lower, 0.0517
- CCTCACACATGGACCGGTTTTCCCGGTAATCCGTATTTGTA (site CCTCACACTTA) — lower, 0.166
- TGGATTCCATGGACCGGTTTTCCCGGTAATCCGTATTTGAT (site TGGATTCCTAT) — lower, 0
- AGGTTCCCATGGACCGGTTTTCCCGGTAATCCGTATTTGTC (site AGGTTCCCTAA) — lower, 0.0146
- AAGGATCCATGGACCGGTTTTCCCGGTAATCCGTATTTGGT (site AAGGATCCTAC) — lower, 0.373
- GAAGATACATGGACCGGTTTTCCCGGTAATCCGTATTTGTT (site GAAGATGCTAA) — lower, 0.602
- CGGGAGTCATGGACCGGTTTTCCCGGTAATCCGTATTTGGT (site CGGGAGTCTAC) — higher, 2.11
- GTTCGAGCATGGACCGGTTTTCCCGGTAATCCGTATTTGCA (site GCTCGAGCTTG) — within 0.2 log units, 1.25
- GCGAAAACATGGACCGGTTTTCCCGGTAATCCGTATTTGAT (site GCGAAAACTAC) — lower, 0.0215
- ACAGTATCATGGACCGGTTTTCCCGGTAATCCGTATTTGCA (site CCAGTATCTTG) — higher, 2.71
- ACACGAACATGGACCGGTTTTCCCGGTAATCCGTATTTGTC (site ACACGAACTGT) — within 0.2 log units, 1.41
- ACACATGCATGGACCGGTTTTCCCGGTAATCCGTATTTGAC (site ACACATGCTGT) — higher, 2.6
- AGGACTACATGGACCGGTTTTCCCGGTAATCCGTATTTGAC (site AGGAGTACTGT) — lower, 0
- CCACACACATGGACCGGTTTTCCCGGTAATCCGTATTTGCA (site CCACACACTTG) — higher, 2.07
- GTGCATCCATGGACCGGTTTTCCCGGTAATCCGTATTTGGT (site GTGCATACTAC) — lower, 0.0234
- AAAAAGGCATGGACCGGTTTTCCCGGTAATCCGTATTTGCT (site ATAAAGGCTAG) — within 0.2 log units, 1.59
- GTGCATGCATGGACCGGTTTTCCCGGTAATCCGTATTTGGG (site GTGCATGCTCC) — lower, 0.746
- GCAGGCGCATGGACCGGTTTTCCCGGTAATCCGTATTTGCG (site GCAGGCGCTCG) — higher, 2.03
- AATGTAACATGGACCGGTTTTCCCGGTAATCCGTATTTGCT (site AATGTGACTAG) — lower, 0.422
- ATTAGAACATGGACCGGTTTTCCCGGTAATCCGTATTTGGC (site CTTAGAACTGC) — higher, 1.73
- AATGTGTCATGGACCGGTTTTCCCGGTAATCCGTATTTGAC (site AAAGTGTCTGT) — lower, 0
- CATAAAGCATGGACCGGTTTTCCCGGTAATCCGTATTTGAT (site CCTAAAGCTAT) — lower, 0.00418
- CTGTCAGCATGGACCGGTTTTCCCGGTAATCCGTATTTGGT (site CTGTCAGCTAC) — lower, 0.563
- AGCCTTTCATGGACCGGTTTTCCCGGTAATCCGTATTTGCC (site AGCCTTTCTGC) — lower, 0
- CGCCATCCATGGACCGGTTTTCCCGGTAATCCGTATTTGTT (site CGCCATCCTAA) — lower, 0.44
- AGCATTTCATGGACCGGTTTTCCCGGTAATCCGTATTTGAC (site AGCATTTCTGT) — lower, 0.795
- CCATATGCATGGACCGGTTTTCCCGGTAATCCGTATTTGCA (site CCATATGCTTG) — lower, 0.198
- GAAGCAACATGGACCGGTTTTCCCGGTAATCCGTATTTGCC (site GAAGCAACTGG) — higher, 2.09
- TGTTAGGCATGGACCGGTTTTCCCGGTAATCCGTATTTGGT (site TGGTAGGCTAC) — lower, 0.017
- ACCTAGACATGGACCGGTTTTCCCGGTAATCCGTATTTGGG (site ACATAGACTCC) — lower, 0.00696
- AGGACTACATGGACCGGTTTTCCCGGTAATCCGTATTTGCA (site AGGACTACTTG) — higher, 2.22
- ACTAGTGCATGGACCGGTTTTCCCGGTAATCCGTATTTGAT (site ACTAGTGCTAA) — lower, 0.0209
- GTTCGAGCATGGACCGGTTTTCCCGGTAATCCGTATTTGCA (site GTTCTAGCTTG) — lower, 0.494
- CAAGTCACATGGACCGGTTTTCCCGGTAATCCGTATTTGGG (site CAAGTCACTTC) — lower, 0.00273
